{"source": "patent US20150217046A1", "about": "“DOSING REGIMENS FOR SUBCUTANEOUSLY INFUSIBLE ACIDIC COMPOSITIONS” (SynAgile Corporation, priority 2012, published 2015)", "key": {"[1]": {"assay": "Skin symptoms and behavior after subcutaneous LDEE infusion (Example 7)", "assay_type": "in vivo, minipigs"}, "[2]": {"assay": "Infusion site reactions, continuous subcutaneous infusion of 100 mg/mL LDEE pH 3.7 (Example 5)", "assay_type": "in vivo, minipigs", "conditions": "for Fraction of sites with a reaction (firmness): pH 3.7, 100 mg/mL (0.44M) LDEE, continuous s.c. 8 h, 280 mg per site, N = 15 infusions", "description": "The 5.6 mL volume was divided between two simultaneously infused sites, each site receiving 2.8 mL, i.e., 280 mg LDEE. At each site the flow rate was 0.35 mL/hour, i.e. 35 mg LDEE/hour was infused. The number of sites infused on the first day totaled in the four minipigs 8, and was 7 on the 8th day, because of dislodgement of a cannula from one site. The total number of infused sites was 15."}, "[3]": {"conditions": "minipig A day 1: 90 mg LDEE (100 mg/mL, pH 3.7) s.c. continuous over 8 h, oral Lodosyn"}, "[4]": {"conditions": "minipig A day 8: 90 mg LDEE (100 mg/mL, pH 3.7) re-infused at contralateral site over 8 h, pre-infused with 15 units human hyaluronidase"}, "[5]": {"conditions": "minipig B day 1: 90 mg LDEE (100 mg/mL, pH 3.7) s.c. continuous over 8 h, oral Lodosyn"}, "[6]": {"conditions": "minipig C day 1: 560 mg LDEE (100 mg/mL, pH 3.7) split between 2 sites, s.c. continuous over 8 h, oral Lodosyn"}, "[7]": {"conditions": "minipig C day 8: 280 mg LDEE (100 mg/mL, pH 3.7) re-infused at one site, s.c. continuous over 8 h"}, "[8]": {"conditions": "minipig D day 1: 560 mg LDEE (100 mg/mL, pH 3.7) split between 2 sites, s.c. continuous over 8 h, oral Lodosyn"}, "[9]": {"conditions": "minipig D day 8: 560 mg LDEE (100 mg/mL, pH 3.7) re-infused at the 2 day 1 sites, s.c. continuous over 8 h"}, "[10]": {"conditions": "minipig E day 1: 560 mg LDEE (100 mg/mL, pH 3.7) split between 2 sites, s.c. continuous over 8 h, pre-infused with 15 units human hyaluronidase"}, "[11]": {"conditions": "minipig F day 1: 560 mg LDEE (100 mg/mL, pH 3.7) split between 2 sites, s.c. continuous over 8 h, pre-infused with 15 units human hyaluronidase"}}, "note": "Like-named read-outs stand apart in the source and are kept apart here."}
{"smiles": "CCOC(=O)[C@@H](N)Cc1ccc(O)c(O)c1", "note": "[LDEE, levodopa ethyl ester]", "values": [{"measurement": "behavior of the minipigs", "setting": "[1]; LDEE dose rate raising plasma LD above 10,000 ng/mL, even above 15,000 ng/mL", "value": "did not result in a readily observable change in the behavior of the minipigs"}, {"measurement": "diameter of slightly raised swelling at infused site", "setting": "[1]; minipig D only, 7 days after first infusion and again after end of 8th day reinfusion, 560 mg LDEE 100 mg/mL pH 3.7", "value": "about 1 cm"}, {"measurement": "diameter of reactions (slightly raised and firm)", "setting": "[2]; 100 mg/mL (0.44 M) LDEE pH 3.7, continuous s.c. 8 h, 0.35 mL/hour per site", "value": "about 1 cm"}, {"measurement": "fraction of sites with reactions", "setting": "[2]; 100 mg/mL (0.44 M) LDEE pH 3.7, dose divided between two continuously infused sites", "value": "1/15"}, {"measurement": "Fraction of sites with a reaction (firmness)", "setting": "[2]; 0 hrs after end of infusion", "value": 0.067}, {"measurement": "Fraction of sites with a reaction (firmness)", "setting": "[2]; 12 hrs after end of infusion", "value": 0.067}, {"measurement": "Fraction of sites with a reaction (firmness)", "setting": "[2]; 24 hrs after end of infusion", "value": 0.067}, {"measurement": "Fraction of sites with a reaction (firmness)", "setting": "[2]; 3 days after end of infusion", "value": 0.067}, {"measurement": "Fraction of sites with a reaction (firmness)", "setting": "[2]; 7 days after end of infusion", "value": 0.067}, {"measurement": "Fraction of sites with a reaction (firmness)", "setting": "[2]; 14 days after end of infusion", "value": 0}, {"measurement": "Plasma LD, 480 minutes after start of infusion", "setting": "Average of the 10 minipig/day infusions of Table 10", "value": "7,870 ng/mL"}, {"measurement": "Plasma LD, 480 minutes after start of infusion", "setting": "minipig A day 1: 90 mg LDEE (100 mg/mL, pH 3.7) s.c. continuous over 8 h", "value": "1,051 ng/mL"}, {"measurement": "40 minutes Post-Infusion plasma LD", "setting": "[3]", "value": "1,093 ng/mL"}, {"measurement": "End of Infusion Plasma LD", "setting": "[3]", "value": "1,051 ng/mL"}, {"measurement": "40 minutes Post-Infusion plasma LD", "setting": "[4]", "value": 691, "unit": "ng/mL"}, {"measurement": "100 minutes Post-Infusion plasma LD", "setting": "[4]", "value": 342, "unit": "ng/mL"}, {"measurement": "170 minutes Post-Infusion plasma LD", "setting": "[4]", "value": 185, "unit": "ng/mL"}, {"measurement": "End of Infusion Plasma LD", "setting": "[4]", "value": 679, "unit": "ng/mL"}, {"measurement": "Plasma LD, 480 minutes after start of infusion", "setting": "minipig A day 8: 90 mg LDEE (100 mg/mL, pH 3.7), contralateral site, 8 h, hyaluronidase pre-infusion", "value": 679, "unit": "ng/mL"}, {"measurement": "Plasma LD, 480 minutes after start of infusion", "setting": "minipig B day 1: 90 mg LDEE (100 mg/mL, pH 3.7) s.c. continuous over 8 h", "value": "1,351 ng/mL"}, {"measurement": "40 minutes Post-Infusion plasma LD", "setting": "[5]", "value": "1,010 ng/mL"}, {"measurement": "100 minutes Post-Infusion plasma LD", "setting": "[5]", "value": 686, "unit": "ng/mL"}, {"measurement": "170 minutes Post-Infusion plasma LD", "setting": "[5]", "value": 376, "unit": "ng/mL"}, {"measurement": "End of Infusion Plasma LD", "setting": "[5]", "value": "1,351 ng/mL"}, {"measurement": "Plasma LD, 480 minutes after start of infusion", "setting": "minipig C day 1: 560 mg LDEE (100 mg/mL, pH 3.7) split between 2 sites, s.c. continuous over 8 h", "value": "11,377 ng/mL"}, {"measurement": "40 minutes Post-Infusion plasma LD", "setting": "[6]", "value": "11,006 ng/mL"}, {"measurement": "100 minutes Post-Infusion plasma LD", "setting": "[6]", "value": "6,010 ng/mL"}, {"measurement": "170 minutes Post-Infusion plasma LD", "setting": "[6]", "value": "5,754 ng/mL"}, {"measurement": "End of Infusion Plasma LD", "setting": "[6]", "value": "11,377 ng/mL"}, {"measurement": "Plasma LD, 480 minutes after start of infusion", "setting": "minipig C day 8: 280 mg LDEE (100 mg/mL, pH 3.7) at one site, 8 h", "value": 4739, "unit": "ng/mL"}, {"measurement": "40 minutes Post-Infusion plasma LD", "setting": "[7]", "value": 4551, "unit": "ng/mL"}, {"measurement": "100 minutes Post-Infusion plasma LD", "setting": "[7]", "value": 3357, "unit": "ng/mL"}, {"measurement": "170 minutes Post-Infusion plasma LD", "setting": "[7]", "value": 2306, "unit": "ng/mL"}, {"measurement": "End of Infusion Plasma LD", "setting": "[7]", "value": 4739, "unit": "ng/mL"}, {"measurement": "Plasma LD, 480 minutes after start of infusion", "setting": "minipig D day 1: 560 mg LDEE (100 mg/mL, pH 3.7) split between 2 sites, s.c. continuous over 8 h", "value": "15,356 ng/mL"}, {"measurement": "40 minutes Post-Infusion plasma LD", "setting": "[8]", "value": "17,055 ng/mL"}, {"measurement": "100 minutes Post-Infusion plasma LD", "setting": "[8]", "value": "9,790 ng/mL"}, {"measurement": "170 minutes Post-Infusion plasma LD", "setting": "[8]", "value": "6,942 ng/mL"}, {"measurement": "End of Infusion Plasma LD", "setting": "[8]", "value": "15,356 ng/mL"}, {"measurement": "Plasma LD, 480 minutes after start of infusion", "setting": "minipig D day 8: 560 mg LDEE (100 mg/mL, pH 3.7) re-infused at the 2 day 1 sites, 8 h", "value": 8075, "unit": "ng/mL"}, {"measurement": "40 minutes Post-Infusion plasma LD", "setting": "[9]", "value": 8350, "unit": "ng/mL"}, {"measurement": "100 minutes Post-Infusion plasma LD", "setting": "[9]", "value": 5928, "unit": "ng/mL"}, {"measurement": "170 minutes Post-Infusion plasma LD", "setting": "[9]", "value": 4219, "unit": "ng/mL"}, {"measurement": "End of Infusion Plasma LD", "setting": "[9]", "value": 8075, "unit": "ng/mL"}, {"measurement": "increase in plasma LD concentration 40 minutes after cessation of infusion", "setting": "minipig D, Day 1 infusion", "value": "1,699 ng/mL"}, {"measurement": "40 minutes Post-Infusion plasma LD", "setting": "[10]", "value": "11,918 ng/mL"}, {"measurement": "100 minutes Post-Infusion plasma LD", "setting": "[10]", "value": "5,464 ng/mL"}, {"measurement": "170 minutes Post-Infusion plasma LD", "setting": "[10]", "value": "7,329 ng/mL"}, {"measurement": "End of Infusion Plasma LD", "setting": "[10]", "value": "14,212 ng/mL"}, {"measurement": "Plasma LD, 480 minutes after start of infusion", "setting": "minipig E day 1: 560 mg LDEE (100 mg/mL, pH 3.7), 2 sites, 8 h, hyaluronidase pre-infusion", "value": "14,212 ng/mL"}, {"measurement": "40 minutes Post-Infusion plasma LD", "setting": "[11]", "value": "12,310 ng/mL"}, {"measurement": "100 minutes Post-Infusion plasma LD", "setting": "[11]", "value": "3,046 ng/mL"}, {"measurement": "170 minutes Post-Infusion plasma LD", "setting": "[11]", "value": "5,903 ng/mL"}, {"measurement": "End of Infusion Plasma LD", "setting": "[11]", "value": "12,982 ng/mL"}]}
